Source: patent publication US20170204123A1, “Gold (I)-Phosphine Compounds as Anti-Bacterial Agents” (Auspherix Limited, priority 2014, published 2017)

Key:
[1] = test system: human hepatocyte cell line (HepG2); assay: HepG2 cell inhibition assay (CCK-8 cell viability); format: cell-based; settings: 50% growth inhibition vs untreated control, 24 hours
Method: HepG2 Cell Inhibition Assay
Cell counting kit-8 (Sigma, CCK-8) assays were performed to assess the effect of compounds on cell viability. The assay is based on the reduction of a water-soluble tetrazolium salt (WST-8) by cellular dehydrogenases to a formazan dye which can be detected spectroscopically. 96-well plates were seeded with the human hepatocyte cell line (HepG2) at approximately 8×10^3 cells per well in Minimum Essential Medium Eagle (EMEM) with Earle's salts and sodium bicarbonate supplemented with 10% heat-inactivated foetal bovine serum 2 mM glutamine and 1% non-essential amino acids (NEAA). The following day serial dilutions of compounds (dissolved and diluted in DMSO) were added to the cells in duplicates. Control included an ‘untreated’ control where cells were grown in the presence of 1% DMSO and a medium only control (plus 1% DMSO). After 24 hours CCK-8 reagent (10 μl) was added to each well and cell viability was assessed by measuring the absorbance at a wavelength of 450 nm after 2-3 h hours. Only living cells can reduce the tetrazolium salts into coloured formazan products. Results were expressed as 50% growth inhibition (TD50) values compared to ‘untreated’ control. The therapeutic index was calculated as the ratio of the dose that produces growth inhibition in 50% of HepG2 cells divided by the dose where 50% of S. aureus growth is inhibited.

[2] = test system: chinese hamster ovary cells (CHO); assay: CHO toxicity assay (CCK-8 cell viability); format: cell-based; settings: 50% growth inhibition vs untreated control, 24 hours
Method: Cell counting kit-8 (Sigma, CCK-8) assays were performed to assess the effect of compounds on cell viability. The assay is based on the reduction of a water-soluble tetrazolium salt (WST-8) by cellular dehydrogenases to a formazan dye which can be detected spectroscopically. 96-well plates were seeded with chinese hamster ovary cells (CHO) cells at 7×10^3 cells per well in Dulbecco's modified Eagle's medium nutrient mixture F-12 Ham (containing 15 mM HEPES, NaHCO3, pyridoxine and L-glutamine) supplemented with 10% fetal bovine serum (FBS). The following day serial dilutions of compounds (dissolved and diluted in DMSO) were added to the cells in duplicates. Control included an ‘untreated’ control where cells were grown in the presence of 1% DMSO and a medium only control (plus 1% DMSO). After 24 hours CCK-8 reagent (10 μl) was added to each well and cell viability was assessed by measuring the absorbance at a wavelength of 450 nm after 2.5-3 hours. Only living cells can reduce the tetrazolium salts into coloured formazan products. Results were expressed as 50% growth inhibition (TD50) values compared to ‘untreated’ control.
The therapeutic index was calculated as the ratio of the dose that produces growth inhibition in 50% of CHO cells divided by the dose where 50% of S. aureus growth is inhibited.

Structure (SMILES) | HepG2 cell TD50 [1] | CHO cell TD 50 [2]
COC(=O)[C@H](C[Se][Au]=[P](C)(c1ccccc1)c1ccccc1)NC(C)=O [Compound 22] | 10 µg/mL | 
CC[P](CC)(CC)=[Au][S]C1CCN(C(=O)OC(C)(C)C)CC1 [Compound 2] |  | 0.7 µg/mL
C[P](=[Au][S]c1nc2ccccc2[nH]1)(c1ccccc1)c1ccccc1 [Compound 9] |  | 2.6 µg/mL
COC(=O)[C@H](C[S][Au]=[P](C)(C)c1ccccc1)NC(C)=O [Compound 15] | 6 µg/mL | 
CC[P](CC)(CC)=[Au][S]C1CCOCC1 [Compound 1] |  | 0.5 µg/mL
CC[P](CC)(CC)=[Au][S]c1cccnn1 [Compound 4] |  | 1.4 µg/mL
CC[P](CC)(CC)=[Au][S]c1nc2ncccc2o1 [Compound 8] |  | 1.6 µg/mL
C[P](C)(=[Au][S]c1nc2ncccc2o1)c1ccccc1 [Compound 14] | 9 µg/mL | 
CC[P](CC)(CC)=[Au][S]C[C@H](NC(C)=O)C(N)=O [Compound 16] | 9 µg/mL | 
CC[P](CC)(CC)=[Au][S]c1nc2ccccc2[nH]1 [Compound 5] |  | 1.5 µg/mL
CC[P](CC)(CC)=[Au][Se]C[C@H](NC(C)=O)C(=O)OC [Compound 12] |  | 6.5 µg/mL
CC[P](CC)(CC)=[Au][S]C[C@H](NC(C)=O)C(=O)OC [Compound 7] |  | 2.6 µg/mL
C[P](C)(=[Au][S]c1nc2ccccc2[nH]1)c1ccccc1 [Compound 13] | 8.5 µg/mL | 
CC[P](CC)(CC)=[Au][S][C@H]1CC[C@H](O)CC1 [Compound 6] |  | 1.5 µg/mL
COC(=O)[C@H](C[Se][Au]=[P](C(C)C)(C(C)C)C(C)C)NC(C)=O [Compound 23] | 12 µg/mL | 
CC[P](CC)(CC)=[Au][S]c1ncccn1 [Compound 3] |  | 0.6 µg/mL
C[P](=[Au][S]c1nc2ncccc2o1)(c1ccccc1)c1ccccc1 [Compound 11] |  | 2.0 µg/mL
COC(=O)[C@H](C[S][Au]=[P](C)(c1ccccc1)c1ccccc1)NC(C)=O [Compound 10] |  | 1.2 µg/mL
CC(C)[P](=[Au][S]c1nc2ccccc2[nH]1)(C(C)C)C(C)C [Compound 20] | 6 µg/mL | 
